# US20170022171A1, “2,5-DISUBSTITUTED CYCLOPENTANECARBOXYLIC ACIDS AND THEIR USE” (Bayer Pharma Aktiengesellschaft, priority 2014, published 2017)
# How the values were obtained:
# Assay type in all cases: biochemical
# MMP-7 = biological target: T1, MMP-7 (Homo sapiens, UniProt P09237); experiment: In vitro MMP-7 inhibition test
# T1 construct: purchased R&D Systems 907-MP
# T1 sequence (P09237 95-267): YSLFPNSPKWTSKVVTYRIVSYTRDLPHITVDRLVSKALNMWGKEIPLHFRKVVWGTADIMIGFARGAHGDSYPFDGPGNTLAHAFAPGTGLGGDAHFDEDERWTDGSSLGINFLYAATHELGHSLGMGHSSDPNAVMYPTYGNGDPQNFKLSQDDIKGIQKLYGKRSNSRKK
# Outline: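 APMA-activated recombinant MMP-7 (e.g. 0.5 nM final) in Tris/HCl pH 7.5 with CaCl2, NaCl and Brij-35; started with quenched fluorogenic Mca-PLGL-Dpa(Dnp)-AR-NH2 substrate (e.g. 10 μM final). Fluorescence (ex 320/em 410 nm) followed e.g. over 120 min at 32° C; IC50 is the concentration giving 50% signal.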
# MMP-8 = biological target: T2, MMP-8 (Homo sapiens, UniProt P22894); experiment: In vitro MMP-8 inhibition test
# T2 construct: purchased R&D Systems 908-MP
# T2 sequence (P22894 101-467): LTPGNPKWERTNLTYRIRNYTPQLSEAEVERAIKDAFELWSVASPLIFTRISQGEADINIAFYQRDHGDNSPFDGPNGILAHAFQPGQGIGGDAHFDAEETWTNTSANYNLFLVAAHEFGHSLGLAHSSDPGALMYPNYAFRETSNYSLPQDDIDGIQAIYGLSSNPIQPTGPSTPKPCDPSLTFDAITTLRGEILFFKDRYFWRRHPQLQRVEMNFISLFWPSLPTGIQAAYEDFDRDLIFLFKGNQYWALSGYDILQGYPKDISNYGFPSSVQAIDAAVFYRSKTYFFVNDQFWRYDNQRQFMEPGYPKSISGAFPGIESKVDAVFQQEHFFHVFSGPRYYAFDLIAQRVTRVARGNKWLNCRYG
# Outline: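 APMA-activated recombinant MMP-8 (final e.g. 0.5 nM) preincubated with compound in DMSO (e.g. 1 nM–30 μM) in 50 mM Tris/HCl pH 7.5, 10 mM CaCl2, 150 mM NaCl, 0.05% Brij-35. Reaction started with quenched Mca-Pro-Leu-Gly-Leu-Dpa(Dnp)-Ala-Arg-NH2 substrate (e.g. 10 μM); fluorescence (ex 320/em 410 nm) followed e.g. 120 min at 32° C; IC50 at 50% signal.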
# MMP-9 = biological target: T3, MMP-9 (Homo sapiens, UniProt P14780); experiment: In vitro MMP-9 inhibition test
# T3 construct: purchased R&D Systems 911-MP
# T3 sequence (P14780 107-707 limits assumed): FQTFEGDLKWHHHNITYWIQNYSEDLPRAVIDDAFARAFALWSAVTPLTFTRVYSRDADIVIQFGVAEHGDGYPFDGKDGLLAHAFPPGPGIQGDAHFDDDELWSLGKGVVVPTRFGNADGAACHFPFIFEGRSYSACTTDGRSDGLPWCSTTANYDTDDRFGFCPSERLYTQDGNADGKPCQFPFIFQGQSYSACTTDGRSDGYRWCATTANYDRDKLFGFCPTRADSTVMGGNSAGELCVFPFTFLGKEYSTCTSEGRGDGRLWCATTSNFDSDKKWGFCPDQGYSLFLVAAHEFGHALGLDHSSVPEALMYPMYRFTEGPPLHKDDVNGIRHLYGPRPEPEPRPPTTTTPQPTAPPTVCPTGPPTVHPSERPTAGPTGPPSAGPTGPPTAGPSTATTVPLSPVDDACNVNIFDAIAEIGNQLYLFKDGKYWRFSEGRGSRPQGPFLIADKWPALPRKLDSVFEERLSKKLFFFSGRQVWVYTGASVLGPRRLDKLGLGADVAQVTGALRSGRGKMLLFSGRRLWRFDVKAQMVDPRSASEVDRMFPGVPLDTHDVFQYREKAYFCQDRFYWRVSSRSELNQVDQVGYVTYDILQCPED
# Outline: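 Recombinant MMP-9 was APMA-activated and used at e.g. 0.1 nM final in 50 mM Tris/HCl pH 7.5, 10 mM CaCl2, 150 mM NaCl, 0.05% Brij-35, with compound at e.g. 1 nM to 30 μM. Quenched Mca-Pro-Leu-Gly-Leu-Dpa(Dnp)-Ala-Arg-NH2 substrate (e.g. 10 μM) was followed by fluorescence (ex 320/em 410 nm), e.g. 120 min at 32 °C. IC50 corresponds to 50% signal.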
# MMP-14 = biological target: T4, MMP-14 (Homo sapiens, UniProt P50281); experiment: In vitro MMP-14 inhibition test
# T4 construct: purchased R&D Systems 918-MP
# Outline: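 Furin-activated recombinant MMP-14 (e.g. 0.5 nM final) with compound in Tris pH 7.5, CaCl2, NaCl, Brij-35 buffer; Mca/Dnp quenched peptide substrate, e.g. 5 μM final. Fluorescence (ex 320/em 410 nm) followed e.g. 120 min at 32 °C; IC50 at half-maximal signal.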
Compound,IC50 (MMP-7) [nM],IC50 (MMP-8) [nM],IC50 (MMP-9) [nM],IC50 (MMP-14) [nM]
"O=C(O)[C@@H]1[C@@H](Cn2nnc3ccc(C(F)(F)F)cc3c2=O)CC[C@H]1C(=O)c1ccc(SCc2cccc(Cl)c2)cc1 (single isomer, unassigned) [Example 77, (+)-(1RS,2RS,5SR)-2-{4-[(3-Chlorobenzyl)sulphanyl]benzoyl}-5-{[4-oxo-6-(trifluoromethyl)-1,2,3-benzotriazin-3(4H)-yl]methyl}cyclopentanecarboxylic acid]",150,41,550,1200
"O=C(O)[C@@H]1[C@@H](Cn2nnc3ccc(C(F)(F)F)cc3c2=O)CC[C@H]1C(=O)c1ccc(SCc2ccc(Cl)c(Cl)c2)cc1 (single isomer, unassigned) [Example 80, (+)-(1RS,2RS,5SR)-2-{4-[(3,4-Dichlorobenzyl)sulphanyl]benzoyl}-5-{[4-oxo-6-(trifluoromethyl)-1,2,3-benzotriazin-3(4H)-yl]methyl}cyclopentanecarboxylic acid]",200,52,780,2600
"Cc1ccc2nnn(C[C@H]3CC[C@@H](C(=O)c4ccc(OCc5ccccc5)cc4)[C@@H]3C(=O)O)c(=O)c2c1 (single isomer, unassigned) [Example 92, (+)-(1RS,2RS,5SR)-2-[4-(Benzyloxy)benzoyl]-5-[(6-methyl-4-oxo-1,2,3-benzotriazin-3(4H)-yl)methyl]cyclopentanecarboxylic acid]",110,2.4,13,33
"COC(=O)Nc1cccc(COc2ccc(C(=O)[C@@H]3CC[C@H](Cn4nnc5ccc(C(F)(F)F)cc5c4=O)[C@H]3C(=O)O)cc2)c1 (stereo in doubt) [Example 31, (+)-(1RS,2RS,5SR)-2-[4-({3-[(Methoxycarbonyl)amino]benzyl}oxy)benzoyl]-5-{[4-oxo-6-(trifluoromethyl)-1,2,3-benzotriazin-3(4H)-yl]methyl}cyclopentanecarboxylic acid]",79,9.1,2100,400
"(+)-(1RS,2RS,5SR)-2-{4-[(3,4-Dichlorobenzyl)oxy]benzoyl}-5-{[4-oxo-6-(trifluoromethyl)-1,2,3-benzotriazin-3(4H)-yl]methyl}cyclopentanecarboxylic acid [Example 28]",300,43,260,1900
"(+)-(1RS,2RS,5SR)-2-{4-[Cyclohexyl)methyl)sulphanyl]benzoyl}-5-{[4-oxo-6-(trifluoromethyl)-1,2,3-benzotriazin-3(4H)-yl]methyl}cyclopentanecarboxylic acid [Example 86]",1000,150,1500,3900
"(+)-(1RS,2SR,5RS)-2-{[4-Oxo-6-(trifluoromethyl)-1,2,3-benzotriazin-3(4H)-yl]methyl}-5-{4-[(2-phenylethy)sulphanyl]benzoyl}cyclopentanecarboxylic acid [Example 83]",160,260,2100,3900

# Further lines, results first:
IC50 (MMP-7) [nM],IC50 (MMP-8) [nM],IC50 (MMP-9) [nM],IC50 (MMP-14) [nM],Compound
330,64,280,210,"Cc1cccc(COc2ccc(C(=O)[C@@H]3CC[C@H](Cn4nnc5ccc(C)cc5c4=O)[C@H]3C(=O)O)cc2)c1 (single isomer, unassigned) [Example 98, (+)-(1RS,2RS,5SR)-2-{4-[(3-Methylbenzyl)oxy]benzoyl}-5-[(6-methyl-4-oxo-1,2,3-benzotriazin-3(4H)-yl)methyl]cyclopentanecarboxylic acid]"
720,29,100,380,"Cc1ccc2nnn(C[C@H]3CC[C@@H](C(=O)c4ccc(OCc5cccc(C(F)(F)F)c5)cc4)[C@@H]3C(=O)O)c(=O)c2c1 (single isomer, unassigned) [Example 101, (+)-(1RS,2SR,5RS)-2-[(6-Methyl-4-oxo-1,2,3-benzotriazin-3(4H)-yl)methyl]-5-(4-{[3-(trifluoromethyl)benzyl]oxy}benzoyl)cyclopentanecarboxylic acid]"
270,31,110,230,"Cc1ccc2nnn(C[C@H]3CC[C@@H](C(=O)c4ccc(OCc5cccc(Cl)c5)cc4)[C@@H]3C(=O)O)c(=O)c2c1 (single isomer, unassigned) [Example 104, (+)-(1RS,2RS,5SR)-2-{4-[(3-Chlorobenzyl)oxy]benzoyl}-5-[(6-methyl-4-oxo-1,2,3-benzotriazin-3(4H)-yl)methyl]cyclopentanecarboxylic acid]"
200,19,89,290,"COc1cccc(COc2ccc(C(=O)[C@@H]3CC[C@H](Cn4nnc5ccc(C)cc5c4=O)[C@H]3C(=O)O)cc2)c1 (single isomer, unassigned) [Example 107, (+)-(1RS,2RS,5SR)-2-{4-[(3-Methoxybenzyl)oxy]benzoyl}-5-[(6-methyl-4-oxo-1,2,3-benzotriazin-3(4H)-yl)methyl]cyclopentanecarboxylic acid]"
1200,120,380,720,"Cc1ccc2nnn(C[C@H]3CC[C@@H](C(=O)c4ccc(OCc5cccc(OC(F)(F)F)c5)cc4)[C@@H]3C(=O)O)c(=O)c2c1 (single isomer, unassigned) [Example 110, (+)-(1RS,2SR,5RS)-2-[(6-Methyl-4-oxo-1,2,3-benzotriazin-3(4H)-yl)methyl]-5-(4-{[3-(trifluoromethoxy)benzyl]oxy}benzoyl)cyclopentanecarboxylic acid]"
100,4,54,88,"Cc1ccc2nnn(C[C@H]3CC[C@@H](C(=O)c4ccc(OCC5CCCCC5)cc4)[C@@H]3C(=O)O)c(=O)c2c1 (single isomer, unassigned) [Example 117, (+)-(1RS,2RS,5SR)-2-[4-(Cyclohexylmethoxy)benzoyl]-5-[(6-methyl-4-oxo-1,2,3-benzotriazin-3(4H)-yl)methyl]cyclopentanecarboxylic acid]"
350,18,57,820,"CCCCCCOc1ccc(C(=O)[C@@H]2CC[C@H](Cn3nnc4ccc(C)cc4c3=O)[C@H]2C(=O)O)cc1 (single isomer, unassigned) [Example 121, (+)-(1RS,2RS,5SR)-2-[4-(Hexyloxy)benzoyl]-5-[(6-methyl-4-oxo-1,2,3-benzotriazin-3(4H)-yl)methyl]cyclopentanecarboxylic acid]"
